{"source": "ChEMBL document CHEMBL3045820", "about": "“Discovery of a novel histone deacetylase 8 inhibitor by virtual screening” (Med Chem Res, 2012)", "biological_target": "T1, Histone deacetylase 8 (Homo sapiens, UniProt Q9BY41)", "T1 sequence (Q9BY41 whole entry)": "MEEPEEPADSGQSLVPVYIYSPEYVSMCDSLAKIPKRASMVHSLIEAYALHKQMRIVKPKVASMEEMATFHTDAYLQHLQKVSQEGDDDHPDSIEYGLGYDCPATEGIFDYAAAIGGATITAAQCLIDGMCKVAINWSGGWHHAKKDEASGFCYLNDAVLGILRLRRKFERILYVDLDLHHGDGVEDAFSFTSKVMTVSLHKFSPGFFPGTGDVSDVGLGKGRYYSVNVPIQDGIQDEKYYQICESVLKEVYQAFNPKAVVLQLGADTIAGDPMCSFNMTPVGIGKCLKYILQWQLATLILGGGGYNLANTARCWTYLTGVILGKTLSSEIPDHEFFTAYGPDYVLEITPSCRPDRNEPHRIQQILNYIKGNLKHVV", "test": "Inhibition of HDAC8 (unknown origin) expressed in Escherichia coli using Boc-Lys (acetyl)-AMC as substrate incubated for 5 min prior to substrate addition measured after 30 min by fluorescence assay", "data": [{"smiles": "COc1cc(C(=O)NN)ccc1COc1ccc(Cl)c(C)c1", "values": [{"measurement": "IC50", "result": 1.6, "unit": "µM"}]}]}
